{"source": "PubChem BioAssay AID2060622", "about": "(Molecular Pharmacology Branch, DTP, NCI, 2025)", "test_system": "242566-281-R-J2-PDC complex spheroid viability", "experiment": "Anticancer human tumor 242566-281-R-J2-PDC patient-derived pancreatic carcinoma cell line growth inhibition [CLK]", "conditions": "for viability, T/C: stronger effect = lower value", "how_it_was_run": "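Patient-derived tumor cells grown as complex spheroids with HUVEC endothelial cells and mesenchymal stem cells, treated with drug combinations. Concentrations descend in half-log steps from near clinical Cmax, or from 10 microM if Cmax unknown.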", "key": {"[1]": {"conditions": "curve of first compound, second compound 0.0316 µM"}, "[2]": {"conditions": "curve of first compound, second compound 0.1 µM"}, "[3]": {"conditions": "curve of first compound, second compound 0.316 µM"}, "[4]": {"conditions": "curve of first compound, second compound 1 µM"}, "[5]": {"conditions": "curve of first compound, second compound 3.16 µM"}, "[6]": {"conditions": "curve of first compound, second compound 10 µM"}, "[7]": {"conditions": "second compound 0.0316 µM, first compound 0.00949 µM"}, "[8]": {"conditions": "second compound 0.0316 µM, first compound 0.03 µM"}, "[9]": {"conditions": "second compound 0.0316 µM, first compound 0.0949 µM"}, "[10]": {"conditions": "second compound 0.0316 µM, first compound 0.3 µM"}, "[11]": {"conditions": "second compound 0.1 µM, first compound 0.00949 µM"}, "[12]": {"conditions": "second compound 0.1 µM, first compound 0.03 µM"}, "[13]": {"conditions": "second compound 0.1 µM, first compound 0.0949 µM"}, "[14]": {"conditions": "second compound 0.1 µM, first compound 0.3 µM"}, "[15]": {"conditions": "second compound 0.316 µM, first compound 0.00949 µM"}, "[16]": {"conditions": "second compound 0.316 µM, first compound 0.03 µM"}, "[17]": {"conditions": "second compound 0.316 µM, first compound 0.0949 µM"}, "[18]": {"conditions": "second compound 0.316 µM, first compound 0.3 µM"}, "[19]": {"conditions": "second compound 1 µM, first compound 0.00949 µM"}, "[20]": {"conditions": "second compound 1 µM, first compound 0.03 µM"}, "[21]": {"conditions": "second compound 1 µM, first compound 0.0949 µM"}, "[22]": {"conditions": "second compound 1 µM, first compound 0.3 µM"}, "[23]": {"conditions": "second compound 3.16 µM, first compound 0.00949 µM"}, "[24]": {"conditions": "second compound 3.16 µM, first compound 0.03 µM"}, "[25]": {"conditions": "second compound 3.16 µM, first compound 0.0949 µM"}, "[26]": {"conditions": "second compound 3.16 µM, first compound 0.3 µM"}, "[27]": {"conditions": "second compound 10 µM, first compound 0.00949 µM"}, "[28]": {"conditions": "second compound 10 µM, first compound 0.03 µM"}, "[29]": {"conditions": "second compound 10 µM, first compound 0.0949 µM"}, "[30]": {"conditions": "second compound 10 µM, first compound 0.3 µM"}}, "note": "Where “and” joins values, the source holds several entries; their conditions need not be identical. Identical values can stand only once.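 Further: spheroids exposed to compounds for 7 days before readout.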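 Wherever viability, T/C is given: 100% = DMSO vehicle control wells.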", "data": [{"smiles": "NC(=O)C(=Cn1cnc(-c2cc(C(F)(F)F)cc(C(F)(F)F)c2)n1)c1cncnc1", "note": "+ CN1CCN(c2cc(C(=O)Nc3cc4cc(-c5cnn(C)c5)ccc4cn3)ccn2)CC1", "values": [{"measurement": "IC50", "setting": "[1]", "result": 978, "unit": "nM"}, {"measurement": "IC50", "setting": "[2]", "result": 465, "unit": "nM"}, {"measurement": "IC50", "setting": "[3]", "result": "< 9.49", "unit": "nM"}, {"measurement": "IC50", "setting": "[4]", "result": "< 9.49", "unit": "nM"}, {"measurement": "IC50", "setting": "[5]", "result": "< 9.49", "unit": "nM"}, {"measurement": "IC50", "setting": "[6]", "result": "< 9.49", "unit": "nM"}, {"measurement": "viability, T/C", "setting": "[7]", "result": 99.3, "unit": "%"}, {"measurement": "viability, T/C", "setting": "[8]", "result": 106, "unit": "%"}, {"measurement": "viability, T/C", "setting": "[9]", "result": 97, "unit": "%"}, {"measurement": "viability, T/C", "setting": "[10]", "result": 84.1, "unit": "%"}, {"measurement": "viability, T/C", "setting": "second compound 0.0316 µM, first compound 0.949 µM", "result": 50.9, "unit": "%"}, {"measurement": "viability, T/C", "setting": "second compound 0.0316 µM, first compound 3 µM", "result": 19.7, "unit": "%"}, {"measurement": "viability, T/C", "setting": "[11]", "result": 92.5, "unit": "%"}, {"measurement": "viability, T/C", "setting": "[12]", "result": 83.6, "unit": "%"}, {"measurement": "viability, T/C", "setting": "[13]", "result": 84.4, "unit": "%"}, {"measurement": "viability, T/C", "setting": "[14]", "result": 60, "unit": "%"}, {"measurement": "viability, T/C", "setting": "second compound 0.1 µM, first compound 0.949 µM", "result": 31.7, "unit": "%"}, {"measurement": "viability, T/C", "setting": "second compound 0.1 µM, first compound 3 µM", "result": 7.32, "unit": "%"}, {"measurement": "viability, T/C", "setting": "[15]", "result": 29.2, "unit": "%"}, {"measurement": "viability, T/C", "setting": "[16]", "result": 16.8, "unit": "%"}, {"measurement": "viability, T/C", "setting": "[17]", "result": 6.44, "unit": "%"}, {"measurement": "viability, T/C", "setting": "[18]", "result": 3.56, "unit": "%"}, {"measurement": "viability, T/C", "setting": "second compound 0.316 µM, first compound 0.949 µM", "result": 3.41, "unit": "%"}, {"measurement": "viability, T/C", "setting": "second compound 0.316 µM, first compound 3 µM", "result": 4.67, "unit": "%"}, {"measurement": "viability, T/C", "setting": "[19]", "result": 3.11, "unit": "%"}, {"measurement": "viability, T/C", "setting": "[20]", "result": 4.63, "unit": "%"}, {"measurement": "viability, T/C", "setting": "[21]", "result": 6.18, "unit": "%"}, {"measurement": "viability, T/C", "setting": "[22]", "result": 6.13, "unit": "%"}, {"measurement": "viability, T/C", "setting": "second compound 1 µM, first compound 0.949 µM", "result": 6.09, "unit": "%"}, {"measurement": "viability, T/C", "setting": "second compound 1 µM, first compound 3 µM", "result": 5.22, "unit": "%"}, {"measurement": "viability, T/C", "setting": "[23]", "result": 5.89, "unit": "%"}, {"measurement": "viability, T/C", "setting": "[24]", "result": 6.16, "unit": "%"}, {"measurement": "viability, T/C", "setting": "[25]", "result": 8.1, "unit": "%"}, {"measurement": "viability, T/C", "setting": "[26]", "result": 7.76, "unit": "%"}, {"measurement": "viability, T/C", "setting": "second compound 3.16 µM, first compound 0.949 µM", "result": 7.74, "unit": "%"}, {"measurement": "viability, T/C", "setting": "second compound 3.16 µM, first compound 3 µM", "result": 6.2, "unit": "%"}, {"measurement": "viability, T/C", "setting": "[27]", "result": 1.11, "unit": "%"}, {"measurement": "viability, T/C", "setting": "[28]", "result": 1.56, "unit": "%"}, {"measurement": "viability, T/C", "setting": "[29]", "result": 0.89, "unit": "%"}, {"measurement": "viability, T/C", "setting": "[30]", "result": 1.02, "unit": "%"}, {"measurement": "viability, T/C", "setting": "second compound 10 µM, first compound 0.949 µM", "result": 0.68, "unit": "%"}, {"measurement": "viability, T/C", "setting": "second compound 10 µM, first compound 3 µM", "result": 0.27, "unit": "%"}]}, {"smiles": "CC(C)CC(NC(=O)C(Cc1ccccc1)NC(=O)c1cnccn1)B(O)O", "note": "(stereo unspecified) + CNC(=O)c1ccc(Nc2nc(OC3CCCC3)c3c(-c4ccc5nc(C)oc5c4)c[nH]c3n2)c(OC)c1", "values": [{"measurement": "IC50", "setting": "[1]", "result": 4.24, "unit": "nM"}, {"measurement": "IC50", "setting": "[2]", "result": 3.81, "unit": "nM"}, {"measurement": "IC50", "setting": "[3]", "result": 2.77, "unit": "nM"}, {"measurement": "IC50", "setting": "[4]", "result": 1.56, "unit": "nM"}, {"measurement": "IC50", "setting": "[5]", "result": 1.19, "unit": "nM"}, {"measurement": "IC50", "setting": "[6]", "result": 1.15, "unit": "nM"}, {"measurement": "viability, T/C", "setting": "second compound 0.0316 µM, first compound 0.000949 µM", "result": 82.2, "unit": "%"}, {"measurement": "viability, T/C", "setting": "second compound 0.0316 µM, first compound 0.003 µM", "result": 71.1, "unit": "%"}, {"measurement": "viability, T/C", "setting": "[7]", "result": 0.73, "unit": "%"}, {"measurement": "viability, T/C", "setting": "[8]", "result": 0.63, "unit": "%"}, {"measurement": "viability, T/C", "setting": "[9]", "result": 0.4, "unit": "%"}, {"measurement": "viability, T/C", "setting": "[10]", "result": 0.56, "unit": "%"}, {"measurement": "viability, T/C", "setting": "second compound 0.1 µM, first compound 0.000949 µM", "result": 83.3, "unit": "%"}, {"measurement": "viability, T/C", "setting": "second compound 0.1 µM, first compound 0.003 µM", "result": 62.8, "unit": "%"}, {"measurement": "viability, T/C", "setting": "[11]", "result": 0.92, "unit": "%"}, {"measurement": "viability, T/C", "setting": "[12]", "result": 0.76, "unit": "%"}, {"measurement": "viability, T/C", "setting": "[13]", "result": 0.35, "unit": "%"}, {"measurement": "viability, T/C", "setting": "[14]", "result": 0.57, "unit": "%"}, {"measurement": "viability, T/C", "setting": "second compound 0.316 µM, first compound 0.000949 µM", "result": 83, "unit": "%"}, {"measurement": "viability, T/C", "setting": "second compound 0.316 µM, first compound 0.003 µM", "result": 47.5, "unit": "%"}, {"measurement": "viability, T/C", "setting": "[15]", "result": 0.7, "unit": "%"}, {"measurement": "viability, T/C", "setting": "[16]", "result": 0.78, "unit": "%"}, {"measurement": "viability, T/C", "setting": "[17]", "result": 0.3, "unit": "%"}, {"measurement": "viability, T/C", "setting": "[18]", "result": 0.78, "unit": "%"}, {"measurement": "viability, T/C", "setting": "second compound 1 µM, first compound 0.000949 µM", "result": 73.2, "unit": "%"}, {"measurement": "viability, T/C", "setting": "second compound 1 µM, first compound 0.003 µM", "result": 19.7, "unit": "%"}, {"measurement": "viability, T/C", "setting": "[19]", "result": 0.52, "unit": "%"}, {"measurement": "viability, T/C", "setting": "[20]", "result": 0.28, "unit": "%"}, {"measurement": "viability, T/C", "setting": "[21]", "result": 0.45, "unit": "%"}, {"measurement": "viability, T/C", "setting": "[22]", "result": 0.4, "unit": "%"}, {"measurement": "viability, T/C", "setting": "second compound 3.16 µM, first compound 0.000949 µM", "result": 60.6, "unit": "%"}, {"measurement": "viability, T/C", "setting": "second compound 3.16 µM, first compound 0.003 µM", "result": 6.63, "unit": "%"}, {"measurement": "viability, T/C", "setting": "[23]", "result": 0.34, "unit": "%"}, {"measurement": "viability, T/C", "setting": "[24]", "result": 0.29, "unit": "%"}, {"measurement": "viability, T/C", "setting": "[25]", "result": 0.35, "unit": "%"}, {"measurement": "viability, T/C", "setting": "[26]", "result": 0.37, "unit": "%"}, {"measurement": "viability, T/C", "setting": "second compound 10 µM, first compound 0.000949 µM", "result": 59.4, "unit": "%"}, {"measurement": "viability, T/C", "setting": "second compound 10 µM, first compound 0.003 µM", "result": 3.83, "unit": "%"}, {"measurement": "viability, T/C", "setting": "[27]", "result": 0.57, "unit": "%"}, {"measurement": "viability, T/C", "setting": "[28]", "result": 0.53, "unit": "%"}, {"measurement": "viability, T/C", "setting": "[29]", "result": 0.43, "unit": "%"}, {"measurement": "viability, T/C", "setting": "[30]", "result": 0.42, "unit": "%"}]}, {"smiles": "CC1COCCN1c1cc(C2(S(C)(=N)=O)CC2)nc(-c2ccnc3[nH]ccc23)n1", "note": "(stereo unspecified)", "values": [{"measurement": "viability, T/C", "setting": "compound 0.0316 µM", "result": "108% and 90.3%"}, {"measurement": "viability, T/C", "setting": "compound 0.1 µM", "result": "104% and 84.2%"}, {"measurement": "viability, T/C", "setting": "compound 0.316 µM", "result": "106% and 81%"}, {"measurement": "viability, T/C", "setting": "compound 1 µM", "result": "108% and 90.7%"}, {"measurement": "viability, T/C", "setting": "compound 3.16 µM", "result": "75.2% and 90.5%"}, {"measurement": "viability, T/C", "setting": "compound 10 µM", "result": "37.9% and 60.6%"}, {"measurement": "IC50", "setting": "curve of compound", "result": "6890 nM and > 10000 nM"}]}]}
